# Results reported in PMC6150242, “Design, Synthesis and Anticancer Evaluation of Fangchinoline Derivatives” (Molecules : A Journal of Synthetic Chemistry and Natural …, 2017).
# Read-outs that look alike come from different tables or passages of the source.
# Columns and labels:
# [1] = test system: human melanoma WM9 cell line; test: MTT in vitro cytotoxicity assay, WM9; type: cell-based; conditions: for IC50: Homo sapiens, read-out: IC50 (µM) WM9
# Protocol: (§1) As summarized in Table 1, five cancer cell lines, including MDA-MB-231, PC3, WM9, HEL and K562 cell lines, were induced for testing the anti-cancer activities of those derivatives. The first line anti-cancer drug, vincristine, was treated as positive control. All the test compounds were dissolved in DMSO. The preliminary structure-activity relationship of all compounds against the 5 cancer cell lines was also investigated.
# (§2) Human erythroleukemic cell lines HEL and K562, human breast cell lines MDA-MB-231, human prostate cell lines PC3 and human melanoma cell lines WM9 were cultured in RPMI (HEL and K562) or DMEM (MDA-MB-231, PC3, WM9) medium (high glucose) supplemented with 5% FBS (HyClone, GE Healthcare, Parramatta, Australia) and 1% ampicillin/streptomycin.
# (§3) Cells were cultured in 96-well plates at densities of 1 × 10^5/well. The plates were pre-incubated at 37 °C for 24 h to allow adaptation of cells prior to the addition of the test compounds. Then, compounds were added to cells in triplicate in several doses, and incubated for an additional 2 days. The 50% inhibitory concentrations (IC50) were measured for fangchinoline derivatives using MTT (diphenyltetrazolium bromide) assay.
# [2] = test system: human prostate cancer PC3 cell line; test: MTT in vitro cytotoxicity assay, PC3; type: cell-based; conditions: read-out: IC50 (µM) PC3
# Protocol: as §1, §2, §3
# [3] = test system: human leukaemia K562 cell line; test: MTT in vitro cytotoxicity assay, K562; type: cell-based; conditions: read-out: IC50 (µM) K562
# Protocol: as §1, §2, §3
# [4] = test system: human breast cancer MDA-MB-231 cell line; test: MTT in vitro cytotoxicity assay, MDA-MB-231; type: cell-based; conditions: read-out: IC50 (µM) MDA-MB-231
# Protocol: as §1, §2, §3
# [5] = test system: human leukaemia HEL cell line; test: MTT in vitro cytotoxicity assay, HEL; type: cell-based; conditions: read-out: IC50 (µM) HEL
# Protocol: as §1, §2, §3
# [6] = Toxicity on normal human liver cell line; type: cell-based; conditions: HL7702 normal liver cells; normal human liver cell line HL7702; read-out: IC50 against HL7702 cell growth
# Protocol: (§4) 3 fangchinoline derivatives were also tested for their toxicities on normal human liver cell line HL7702.
# as §3
# [7] = test system: normal human liver cell line HL7702; test: Toxicity on normal human liver cell line; type: cell-based; conditions: HL7702 versus cancer cell lines
# Protocol: as §4, §3
# [8] = test system: human hepatocellular carcinoma cell line PLC/PRF/5; set-up: method as in PMID 21418191; conditions: autophagy induction at relatively low concentrations; cited from earlier work
# [9] = test system: human hepatocellular carcinoma cell line HepG2; set-up: method as in PMID 21418191; conditions: autophagy induction at relatively low concentrations; cited from earlier work
# Bcl-xl = test: Western blot of apoptosis indicators, Bcl-xl; type: cell-based, human; conditions: WM9 cells, 2.5 µM, 24 h
# Protocol: (§5) Western blot analysis was induced to elucidate the effect of compound 4g on protein levels to further expatiate how compound 4g induces apoptosis in WM9 cells (Figure 3). The Bcl-xl, Bcl-2 and Survivin display repressor activities in cell death.
# (§6) The total protein was collected from WM9 cells using RIPA lysis buffer, and separated on 10% SDS Page, as described. The protein was then transferred to polyvinylidene fluoride (PVDF, 0.2 µm) membrane, and blocked by 5% BSA solution for 2 h at room temperature. The membrane was then incubated with specific primary antibodies overnight at 4 °C, followed by incubation with corresponding HRP-conjugated secondary antibodies for 2 h at room temperature. Expression of particular proteins was measured by applying ECL select substrate (Li-Cor, Lincoln, NE, USA). Polyclonal rabbit antibody for Bcl-2 was obtained from Abcam (Abcam, Cambridge, UK); Bcl-xl, Survivin, Casepase-3 and PARP antibodies from Cell Signalling Technology (CST, Danvers, MA, USA) and GAPDH from Goodhere Biotechnology (Hangzhou, Zhejiang, China).
# (§7) Figure 3 Fangchinoline derivative 4g affects the protein levels of the apoptotic genes in WM9 cell line. […] WM9 cells were treated with 2.5 μM 4g for 24 h.
# PARP = test: Western blot of apoptosis indicators, PARP; type: cell-based, human; conditions: WM9 cells, 2.5 µM, 24 h
# Protocol: as §5, §6, §7
# Caspase-3 = test: Western blot of apoptosis indicators, Caspase-3; type: cell-based, human; conditions: WM9 cells, 2.5 µM, 24 h
# Protocol: as §5, §6, §7
# WM9 cells = test: Annexin V-FITC/PI flow cytometry apoptosis assay; type: cell-based, human; conditions: 2.5 µM, 24 h
# Protocol: The Annexin V-FITC-A/PI apoptosis detection kit was induced to test the further role of compound 4g in inhibiting WM9 cell death (Figure 2). Before undergoing the flow cytometry, the WM9 cells were treated with 0 and 2.5 µM compound 4g for 24 h, and then Annexin V-FITC and PI were put into use.
# For apoptosis analysis, WM9 cells were incubated with compounds or DMSO as a vehicle control for 24 h. Cells were then washed with cold PBS, stained with Annexin V-FITC and Propidium Iodide (PI) using apoptosis detection Kit (BD Biosciences, Bergen, NJ, USA).
# Figure 2 Compound 4g induced apoptosis in WM9 cells. WM9 cells were stained with Annexin V-FITC and PI by incubating at room temperature for 15 min after treated cells with 2.5 µM 4g for 24 h. Finally, apoptosis analysis was carried out by flow cytometry. TEXT PRINTED IN THE PICTURE: Y-37: WM9 24h: Q4-UL 1.2% (2.5 μM); WM9 24h: Q4-UR 8.8% (2.5 μM); WM9 24h: Q4-LL 74.2% (2.5 μM); WM9 24h: Q4-LR 15.8% (2.5 μM) DOUBTS OF THE COPYIST ABOUT THIS PICTURE: Y-37, Q4-UR: 8.8% or 6.8%; the first digit is partly hidden by plotted points / The Control plot also prints quadrant percentages (Q4-UL 0.7%, Q4-UR 0.0%, Q4-LL 98.9%, Q4-LR 0.3%). They are not listed because Control is not a substance.
# Bcl-2 = test: Western blot of apoptosis indicators, Bcl-2; type: cell-based, human; conditions: WM9 cells, 2.5 µM, 24 h
# Protocol: as §5, §6, §7
# Survivin = test: Western blot of apoptosis indicators, Survivin; type: cell-based, human; conditions: WM9 cells, 2.5 µM, 24 h
# Protocol: as §5, §6, §7
# [10] = WM9, MTT assay after 48 h of treatment, averaged from at least 3 independent experiments, variation ±10%
# [11] = PC-3, MTT assay after 48 h of treatment, averaged from at least 3 independent experiments, variation ±10%
# [12] = K562, MTT assay after 48 h of treatment, averaged from at least 3 independent experiments, variation ±10%
# [13] = MDA-MB-231, MTT assay after 48 h of treatment, averaged from at least 3 independent experiments, variation ±10%
# [14] = MTT assay after 48 h of treatment, averaged from at least 3 independent experiments, variation ±10%
SMILES,"IC50 [1, 10]","IC50 [2, 11]","IC50 [3, 12]","IC50 [4, 13]","IC50 [5, 14]",further results
"COc1ccc2cc1Oc1ccc(cc1)C[C@H]1c3cc(c(OC)cc3CCN1C)Oc1c(OCC=C(C)C)c(OC)cc3c1[C@H](C2)N(C)CC3 [Compound 1b, 7-O-(3-Methylbut-1-ene)-fangchinoline]",5.56 µM,7.22 µM,6.6 µM,4.44 µM,4.01 µM,
"COc1ccc2cc1Oc1ccc(cc1)C[C@H]1c3cc(c(OC)cc3CCN1C)Oc1c(OS(=O)(=O)c3ccc(C)cc3)c(OC)cc3c1[C@H](C2)N(C)CC3 [Compound 3b, 7-O-Tosyl-fangchinoline]",3.95 µM,3.59 µM,3.85 µM,4.61 µM,2.95 µM,
"COc1ccc2cc1Oc1ccc(cc1)C[C@H]1c3cc(c(OC)cc3CCN1C)Oc1c(OS(=O)(=O)c3ccccc3[N+](=O)[O-])c(OC)cc3c1[C@H](C2)N(C)CC3 [Compound 3c, 7-O-(o-Nirtobenzessulfonyl)-fangchinoline]",3.58 µM,4.76 µM,4.06 µM,8.7 µM,6.82 µM,
"COc1ccc2cc1Oc1ccc(cc1)C[C@H]1c3cc(c(OC)cc3CCN1C)Oc1c(OC(=O)c3ccco3)c(OC)cc3c1[C@H](C2)N(C)CC3 [Compound 3g, 7-O-(Furan-m-formyl)-fangchinoline]",3.13 µM,4.33 µM,6.39 µM,6.02 µM,4.04 µM,IC50 at 2 days [6]: 17.3 µM; fold lower toxicity on HL7702 than inhibition on cancer cell lines [7]: ~3 fold
"COc1ccc2cc1Oc1ccc(cc1)C[C@H]1c3cc(c(OC)cc3CCN1C)Oc1c(OC(=O)c3ccccc3)c(OC)cc3c1[C@H](C2)N(C)CC3 [Compound 3i, 7-O-Benzoyl-fangchinoline]",2.73 µM,4.57 µM,2.86 µM,3.46 µM,2.04 µM,
"COc1cc(Br)c2cc1Oc1ccc(cc1)C[C@H]1c3cc(c(OC)cc3CCN1C)Oc1c(OC(=O)c3ccccc3)c(OC)c(Br)c3c1[C@H](C2)N(C)CC3 [Compound 4a, 7-O-Benzoyl-5,14-dibromo-fangchinoline]",2.51 µM,4.22 µM,2.45 µM,4.12 µM,2.65 µM,
"COc1cc(Cl)c2cc1Oc1ccc(cc1)C[C@H]1c3cc(c(OC)cc3CCN1C)Oc1c(OC(=O)c3ccccc3)c(OC)c(Cl)c3c1[C@H](C2)N(C)CC3 [Compound 4b, 7-O-Benzoyl-5,14-dichloro-fangchinoline]",3.54 µM,3.85 µM,3.16 µM,7.22 µM,5.11 µM,
COc1ccc2cc1Oc1ccc(cc1)C[C@H]1c3cc(c(OC)cc3CCN1C)Oc1c(O)c(OC)cc3c1[C@H](C2)N(C)CC3 [Fangchinoline],,,,,,"IC50 ([1]; WM9, 48 h): 13.1 µM; IC50 [8]: ~5 µM; IC50 [9]: ~5 µM; IC50 ([2]; PC-3, 48 h): 11.1 µM; IC50 ([3]; K562, 48 h): 10.3 µM; IC50 ([4]; MDA-MB-231, 48 h): 12.3 µM; IC50 ([5]; 48 h): 8.95 µM"
"C=CCOc1c(OC)cc2c3c1Oc1cc4c(cc1OC)CCN(C)[C@H]4Cc1ccc(cc1)Oc1cc(ccc1OC)C[C@@H]3N(C)CC2 [Compound 1c, 7-O-(Prop-1-ene)-fangchinoline]",3.05 µM,4.75 µM,6.78 µM,5.04 µM,4.72 µM,
"COc1ccc2cc1Oc1ccc(cc1)C[C@H]1c3cc(c(OC)cc3CCN1C)Oc1c(OCc3ccccc3)c(OC)cc3c1[C@H](C2)N(C)CC3 [Compound 1a, 7-O-Benzyl-fangchinoline]",3.44 µM,3.65 µM,4.75 µM,5.13 µM,4.42 µM,
"COc1cc([N+](=O)[O-])c2cc1Oc1ccc(cc1)C[C@H]1c3cc(c(OC)cc3CCN1C)Oc1c(OCc3ccccc3)c(OC)cc3c1[C@H](C2)N(C)CC3 [Compound 2a, 7-Benzyl-14-nitro-fangchinoline]",3.04 µM,3.69 µM,8.33 µM,8.6 µM,8.96 µM,IC50 at 2 days [6]: 5.6 µM
"CC[C@]1(O)C[C@H]2CN(CCc3c([nH]c4ccccc34)[C@@](C(=O)OC)(c3cc4c(cc3OC)N(C=O)[C@H]3[C@@](O)(C(=O)OC)[C@H](OC(C)=O)[C@]5(CC)C=CCN6CC[C@]43[C@@H]65)C2)C1 [Vincristine, reference compound]",10.6 µM,5.36 µM,5.62 µM,13.1 µM,6.38 µM,
"COc1cc([N+](=O)[O-])c2cc1Oc1ccc(cc1)C[C@H]1c3cc(c(OC)cc3CCN1C)Oc1c(OC(=O)c3ccccc3)c(OC)cc3c1[C@H](C2)N(C)CC3 [Compound 4g, 7-O-Benzoyl-14-nitro-fangchinoline]",1.07 µM,2.03 µM,2.09 µM,2.92 µM,1.98 µM,times more active than first stage derivative 3i on WM9 ([1]; WM9 IC50 ratio versus 3i): 2.5 times; times more active than fangchinoline on WM9 ([1]; WM9 IC50 ratio versus fangchinoline): 12.2 times; times more active than vincristine on WM9 ([1]; WM9 IC50 ratio versus vincristine): 9.8 times; Bcl-xl expression (Western blot) (Bcl-xl): inhibited; full-length PARP level (Western blot) (PARP): down-regulation of full-length PARP; Pro-Caspase-3 / Cleaved-Caspase-3 (Western blot) (Caspase-3): activation of executioner from Pro-Caspase-3 to Cleaved-Caspase-3; WM9 cells in the early apoptosis state (WM9 cells; control 0.0%): 8.8%; WM9 cells in the late apoptosis state (WM9 cells; control 0.3%): 15.8%; IC50 at 2 days [6]: 5 µM; fold lower toxicity on HL7702 than inhibition on cancer cell lines [7]: ~5 fold; Bcl-2 expression (Western blot) (Bcl-2): inhibited; Survivin expression (Western blot) (Survivin): inhibited
"COc1ccc2cc1Oc1ccc(cc1)C[C@H]1c3cc(c(OC)cc3CCN1C)Oc1c(OC(C)=O)c(OC)cc3c1[C@H](C2)N(C)CC3 [Compound 3a, 7-O-Acetyl-fangchinoline]",2.65 µM,3.01 µM,6.99 µM,6.67 µM,2.75 µM,
